Results from patent US6974664B2, “Screening method for cancer therapeutics and stable antitumor drug” (The Board of Trustees of the Leland Stanford University, priority 2000, dated 2005).
pIC50, pKi: −log10 of the molar value.

Assays:
[1] = biological target: T1, yeast mitochondrial FOF1-ATP synthase (Saccharomyces cerevisiae, UniProt P00830+P07251+P38077+P61829); test: Yeast mitochondrial ATPase activity assay; format: biochemical; settings: for consumption of NADH: 80 μM oligomycin or 87 μM apoptolidin, 20 μg yeast mitochondrial protein; for pKi: yeast mitochondria, pH 8, read-out: calculated Ki, ATPase activity
T1 construct: 20 μg of yeast mitochondrial protein (as measured by the Lowry method) was added to reaction buffer; endogenous in cells; host or cells: Crude mitochondria from Saccharomyces cerevisiae strain DBY7286 grown on lactate
Experimental: The assay is that described in Example 4 hereinbelow where the combination of pyruvate kinase and LDH effect conversion of phosphoenol pyruvate to lactate in the presence of ATP and NADH. With increasing concentrations of either drug, the specific activity of the enzyme rapidly declines. The calculated Ki values for oligomycin and apoptolidin are 1 μM and 5 μM respectively. Although the observed Ki for apoptolidin is five-fold higher than that for oligomycin, this may be an underestimate of the potency of apoptolidin. […] Mitochondrial ATPase activity assays are typically performed at pH 8. Thus, the true Ki for apoptolidin may be lower than that observed herein and accounts for the observation the IC50 values for apoptolidin against both LYas as well as MCF7 cells are substantially lower than the measured Ki against mitochondrial ATPase. This difference might be explained by a preference for mammalian ATPase over yeast ATPase, or by the possibility that apoptosis via this pathway is a dominant phenotype.
Crude yeast mitochondria were isolated from a lactate grown Saccharomyces cerevisiae strain DBY7286 (mata, ura-/-) according to published procedures. Briefly, 2 L shake flasks of yeast were grown up on semisynthetic lactate medium at 30° C. with vigorous shaking to an OD600 of 3. Cells were collected at 4000 g and the wet weight of the pellet was determined. Cells were converted to spheroplasts by a 30 minute incubation at 30° C. with 2.5 mg Zymolyase 20T (ICN Biochemicals) per gram of packed cells in a volume of 2 ml per gram of packed cells in Buffer A (1.2 M sorbitol, 20 mM potassium phosphate, pH 7.4). The Zymolyase 20T was washed out twice by centrifugation at 4000 g and resuspension in Buffer A. The spheroplasts were then resuspended in Buffer B (0.6 M sorbitol, 20 mM K^+ MES, pH6.0) with 0.5 mM PMSF and homogenized in a 40 ml glass Dounce homogenizer using 15 strokes with a tight-fitting pestle. The unbroken spheroplasts were collected by centrifugation at 1500 g and rehomogenized with 15 strokes in Buffer B plus PMSF. […] The protein concentration was determined by the Lowry assay and the dark brown mitochondria were resuspended in Buffer C (0.6 M sorbitol, 20 mM HEPES, pH 7.4). Mitochondria were prepared fresh and ATPase activity was measured within 6 hours.
Mitochondrial ATPase activity was measured by standard methods. Briefly, 20 μg of yeast mitochondrial protein (as measured by the Lowry method) was added to reaction buffer containing 50 mM Tris (pH 8.0), 1 mM ATP, 0.3 mM NADH, 3.3 mM MgCl2, 2 μg/ml antimycin A, 1 mM phosphoenol pyruvate, 5 U/ml lactate dehydrogenase, and 2.5 U/ml pyruvate kinase at 28° C. […]

[2] = Stability by analytical reverse phase HPLC at pH 4, 7 and 10; format: physicochemical; settings: for time structure retained: pH 4; for time remained intact / decomposition: pH 10
Experimental: Stability was monitored by an analytical reverse phase HBLC using a Beckman C18 column (4.6 mm×25 cm). Stability was analyzed in this manner at pH 4, 7 and 10, both for apoptolidin and the compound of formula 1. At pH 4, apoptolidin retained its structure for 24 hours; the compound of formula 1 for at least 28 hours when observation was terminated.

[3] = test system: breast carcinoma cell line MCF-7; test: MTT assay, MCF-7 cells; format: cell-based; settings: Homo sapiens, MCF7; MCF-7, 120 hours
Experimental: (§1) Activity was measured by FACS staining for annexin V and by MTT assay.
The breast carcinoma cell line MCF-7 was tested in 96-well plates in triplicate. Dilutions of apoptolidin or the compound of formula 1 were added to the wells for 120 hours. MTT was then added to the wells at a final concentration of 0.5 mg/ml. The supernatant was removed and the crystals dissolved in 40 mM HCl and isopropanol. The plates were scanned on a microplate reader at 595 nm. The IC50 of the compound of formula 1 was 10 μM; the IC50 of apoptolidin was 90 nM.

[4] = test system: mouse B cell lymphoma cell line LYAS; test: FACS staining for annexin V, LYAS cells; format: cell-based; settings: 6 hours incubation, read-out: IC50, percentage of annexin V+ cells
Experimental: as §1
The mouse B cell lymphoma cell line LYAS was incubated with apoptolidin in a compound of formula 1 for 6 hours. The treating compounds were removed and the cells were stained with annexin V-CY5PE for 15 minutes and washed 3 times. Cells were analyzed on the FACSAN and the percentage of annexin V+ cells was quantified. The IC50 of the compound of formula 1 was 10 μM; the IC50 of apoptolidin was 100 nM.

[5] = test system: LYas cells; test: % killing of LYas cells with apoptolidin or oligomycin plus oxamate; format: cell-based, murine; settings: 7 hours; for lowest concentration showing substantial killing in presence of oxamate: LYas cells 1×10^6 ml, with oxamate
Experimental: Similar results are shown in FIG. 8 for LYas cells, where cells planted at 1×10^6 ml were assessed for % killing after 7 hours when treated with various concentrations of apoptolidin or oligomycin in the presence of various concentrations of oxamate. When no apoptosis drugs are administered, there is no effect of oxamate up to a concentration of 15 mM. However, at concentrations where the oxamate alone has no effect, both oligomycin and apoptolidin were able to show substantial killing at concentrations as low as 0.1 mM.

[6] = test system: Jurkat cells; test: Sensitization of Jurkat cells to apoptolidin by oxamate or deoxyglucose; format: cell-based
Experimental: For example, Jurkat cells planted at 40,000 cells per well and treated with 1 μM of apoptolidin show no cell death over a time period of 20 hours. […] Treatment with these amounts of oxamate alone has no effect. (Oxamate is a known inhibitor of lactate dehydrogenase; which converts pyruvate to lactate.)
Another compound known to repress the flow of glucose through the fermentative pathway is deoxyglucose which competes with glucose for this pathway but results in a dead end. […] Deoxyglucose alone at the control concentrations has no effect.

[7] = test system: PARP; test: PARP cleavage in the presence of apoptolidin; format: cell-based; settings: 1 μM apoptolidin, within 6 hours
From the text: Among those cells which have high ATP requirements, aerobic cells are sensitive, while anaerobic cells are resistant.

[8] = test system: mouse B cell lymphoma cell line LYAS; settings: FACS staining for Annexin V; cited from earlier work
[9] = test system: breast carcinoma cell line MCF-7; settings: MCF-7, MTT assay; cited from earlier work

Question: With COC[C@@H](C[C@H]1O[C@@](O)([C@H](O)[C@@H]2C[C@H](OC)[C@@H](O)CC/C=C(C)/C=C/[C@@H](O[C@@H]3O[C@@H](C)[C@H](OC)[C@@H](O)[C@@H]3O)[C@H](C)/C=C(C)/C=C(C)/C=C(\C)C(=O)O2)[C@H](C)[C@@H](O)[C@H]1C)OC1C[C@](C)(O)[C@@H](O[C@H]2C[C@@H](OC)[C@H](O)[C@@H](C)O2)[C@H](C)O1 (stereo partly drawn) [apoptolidin] as the compound, how does the “consumption of NADH” value [1] read?
Answer: dramatically reduced

Question: And the pKi [1]?
Answer: 5.30

Question: And the half-life ([2]; buffer, pH 7, read-out: decomposition half-life (converted))?
Answer: ~5 h

Question: What about the time structure retained [2] of the same compound?
Answer: 24 h

Question: And the “time remained intact / decomposition” value [2]?
Answer: decomposed almost immediately

Question: And the pIC50 [3]?
Answer: 7.05

Question: What about the pIC50 [4] of the same compound?
Answer: 7.00

Question: What about the “lowest concentration showing substantial killing in presence of oxamate” value [5] of the same compound?
Answer: 0.1 mM

Question: What about the cell death ([6]; 1 μM apoptolidin + 5 mM oxamate) of the same compound?
Answer: does not dramatically change this result

Question: And the “time at which cell death begins” value ([6]; 1 μM apoptolidin + 50 mM oxamate)?
Answer: four

Question: What about the cells killed ([6]; 1 μM apoptolidin + 50 mM oxamate, by 20 hours) of the same compound?
Answer: 95%

Question: And the cell death ([6]; 1 μM apoptolidin alone, 40,000 cells per well, over 20 hours)?
Answer: no cell death

Question: And the PARP cleavage [7]?
Answer: completely cleaved

Question: Which results are given for COC[C@H](O)C[C@H]1O[C@@](O)([C@H](O)[C@@H]2C[C@H](OC)[C@@H](O)CC/C=C(C)/C=C/[C@@H](O[C@@H]3OC(C)[C@H](OC)[C@@H](O)[C@@H]3O)[C@H](C)/C=C(C)/C=C(C)/C=C(\C)C(=O)O2)C(C)=C[C@H]1C (stereo partly drawn) [compound of formula 1]?
Answer: time structure retained [2]: at least 28 hours; time remained intact ([2]; pH 7): at least 28 hours; time remained intact / decomposition [2]: at least 28 hours; pIC50 [3]: 5.00; pIC50 [4]: 5.00; cytotoxic activity relative to apoptolidin [8]: 1%; cytotoxic activity relative to apoptolidin [9]: 1%

Question: Which “effect on cell death, enhancer alone” value ([6]; deoxyglucose alone at the control concentrations) does the source give for O=CC[C@@H](O)[C@H](O)[C@H](O)CO [deoxyglucose, 2-deoxyglucose] here?
Answer: no effect

Question: What about the “lowest deoxyglucose concentration at which apoptolidin effects apoptosis” value ([6]; with 1 μM apoptolidin) of the same compound?
Answer: 5 mM

Question: What does the source list for CC[C@H]1/C=C/C=C/C[C@@H](C)[C@H](O)[C@@](C)(O)C(=O)[C@@H](C)[C@H](O)[C@@H](C)C(=O)[C@@H](C)[C@H](O)[C@@H](C)/C=C/C(=O)O[C@@H]2[C@H](C)[C@H](CC1)O[C@]1(CC[C@H](C)[C@H](C[C@@H](C)O)O1)[C@H]2C [oligomycin]?
Answer: consumption of NADH [1]: dramatically reduced; pKi [1]: 6.00; lowest concentration showing substantial killing in presence of oxamate [5]: 0.1 mM

Question: With NC(=O)C(=O)O [oxamate] as the compound, how does the “effect on % killing, oxamate alone” value ([5]; no apoptosis drug, up to 15 mM oxamate) read?
Answer: no effect

Question: What about the “effect on cell death, enhancer alone” value ([6]; oxamate alone, 5 mM and 50 mM) of the same compound?
Answer: no effect
